Key:
Format in all cases: cell-based, human
[1] = system: C9-ALS iMN lines; experiment: iMN survival assay (longitudinal tracking, hazard ratio vs DMSO) in C9-ALS lines; conditions: 3 μM, 2 weeks, media change every 3 days, three C9-ALS iMN lines
Method: (§1) Daily imaging was performed to collect data at multiple time points over ˜2 weeks, and then analysis of the data enabled single cell longitudinal tracking during the progressive stages of cell death. The hazard ratio (hR) derived from the Cox model is used to indicate the survival rate of neurons, where a ratio greater than 1 indicates a negative association with survival. A P value is also calculated, which functions as a statistical test of the two hazard functions using the Wald test. In addition, a standard deviation, which replicates the hR value, and survival curves are calculated and graphed. […]
(§2) Induced neuron survival assay: Hb9::RFP^+iMNs appeared between days 13-16 after retroviral transduction. […] Neurons were scored as dead when their soma was no longer detectable by RFP fluorescence. All neuron survival assays were performed at least twice, with equal numbers of neurons from three individual replicates from one of the trials being used for the quantification shown. All trials quantified were representative of other trials of the same experiment. […]

[2] = system: sporadic ALS (sALS) iMNs; experiment: iMN survival assay in sporadic ALS lines; conditions: screen hits
Method: as §1, §2

[3] = system: healthy control iMN lines; experiment: iMN survival assay in healthy control lines; conditions: 1 μM, 3 weeks, five healthy control lines
Method: as §1, §2

[4] = system: ALS patient iMNs; experiment: iMN survival assay in ALS patient motor neurons (line type not specified); conditions: hR vs DMSO
Method: as §1, §2

| Structure (SMILES) | iMN survival, hazard ratio of treatment vs DMSO [1] | potency among hit compounds efficacious against sporadic ALS patient iMNs [2] | iMN survival, treatment vs DMSO group [3] | performance in patient motor neurons (hR) of drugs tested in ALS clinical trials [4] |
| --- | --- | --- | --- | --- |
| Cc1cccc(/C=N/Nc2cc(N3CCOCC3)nc(OCCc3ccccn3)n2)c1 [Apilimod] | significant beneficial effect | among the most potent | No significance difference | – |
| Nc1nc2ccc(OC(F)(F)F)cc2s1 [riluzole] | – | – | – | do best |
| CC1=NN(c2ccccc2)C(=O)C1 [edaravone] | – | – | – | do best |

— patent publication US20250377351A1, “METHOD FOR IDENTIFYING EFFECTIVE TREATMENTS AGAINST NEURODEGENERATIVE DISORDERS” (AcuraStem Incorporated, priority 2018, published 2025)
